The record followed here is patent US7709471B2, “Compounds” (AstraZeneca AB, priority 2006, dated 2010).

The test concerns human colon tumour cell line HT29. As to the kind of experiment: Cellular Assay (phosphohistone H3 Ser10 mitotic marker, HT29). The format is cell-based. To be noted: HT-29, 24 h, HT29 cells, read-out: IC50 (cellular assay, phosphohistone H3).

Method: Chromosome condensation in mitosis is accompanied by phosphorylation of histone H3 on serine 10.
After 24 hours, cells were fixed in 3.7% (v/v) formaldehyde then permeabilised and blocked for 10 minutes in 100 μl 0.5% (v/v) Triton X-100, 1% (w/v) bovine serum albumin (BSA) in phosphate buffered saline (PBS). […] The raw assay data were analysed by non-linear regression analysis and used to determine an IC50 value for each compound.

For the compound `CN1CCC(NC(=O)c2cc(Cl)c(Nc3ncc4c(n3)N(C3CCCC3)CC3(CC3)C(=O)N4C)cc2F)CC1` [Example 389, 5-chloro-4-(9′-cyclopentyl-5′-methyl-6′-oxo-5′,6′,8′,9′-tetrahydrospiro[cyclopropane-1,7′-pyrimido[5,4-b][1,4]diazepine]-2′-ylamino)-2-fluoro-N-(1-methyl-4-piperidyl)benzamide], the half-inhibitory concentration (IC50) (usually the concentration that inhibits the measured activity by half) is less than 300 nM.

Turning to `CCN1CC[C@@H](NC(=O)c2ccc(Nc3ncc4c(n3)N(C3CCCCC3)CC3(CC3)C(=O)N4C)c(OC)c2)C1` [Example 441, 4-(9′-cyclohexyl-5′-methyl-6′-oxo-5′,6′,8′,9′-tetrahydrospiro[cyclopropane-1,7′-pyrimido[5,4-b][1,4]diazepine]-2′-ylamino)-N-[(3R)-1-ethylpyrrolidin-3-yl]-3-methoxy-benzamide], the 50% inhibitory concentration (IC50) was less than 300 nM.

In the case of `CCC1(CC)CN(C2CCCC2)c2nc(Nc3ccc(C(=O)NC4CCN(C)CC4)cc3OC)ncc2N(C)C1=O` [Example 380, 4-[(2-cyclopentyl-4,4-diethyl-6-methyl-5-oxo-2,6,9,11-tetrazabicyclo[5.4.0]undeca-7,9,11-trien-10-yl)amino]-3-methoxy-N-(1-methyl-4-piperidyl)benzamide], the IC50 is less than 300 nM.

As for `CCC1(CC)CN(C(C)C)c2nc(Nc3ccc(C(=O)NCC(C)(C)CN4CCCC4)cc3OC)ncc2N(C)C1=O` [Example 309, 4-[(4,4-diethyl-6-methyl-5-oxo-2-propan-2-yl-2,6,9,11-tetrazabicyclo[5.4.0]undeca-7,9,11-trien-10-yl)amino]-N-(2,2-dimethyl-3-pyrrolidin-1-yl-propyl)-3-methoxy-benzamide], the IC50 is less than 1000 nM.

As for `CCOc1cc(C(=O)NC2CCN(C)CC2)c(F)cc1Nc1ncc2c(n1)N(C(C)C)CC(C)(C)C(=O)N2C` [Example 296, 5-ethoxy-2-fluoro-N-(1-methyl-4-piperidyl)-4-[(4,4,6-trimethyl-5-oxo-2-propan-2-yl-2,6,9,11-tetrazabicyclo[5.4.0]undeca-7,9,11-trien-10-yl)amino]benzamide], the IC50 is less than 30000 nM.

For `COc1cc(C(=O)O)ccc1Nc1ncc2c(n1)N(C1CCCC1)CC(C)(C)C(=O)N2C` [Example 242, 4-[(2-cyclopentyl-4,4,6-trimethyl-5-oxo-2,6,9,11-tetrazabicyclo[5.4.0]undeca-7,9,11-trien-10-yl)amino]-3-methoxy-benzoic acid], the IC50 was less than 1000 nM.

As for `CN1CCC(NC(=O)c2cc(F)c(Nc3ncc4c(n3)N(C3CCCC3)CC(C)(C)C(=O)N4C)cc2F)CC1` [Example 356, 4-[(2-cyclopentyl-4,4,6-trimethyl-5-oxo-2,6,9,11-tetrazabicyclo[5.4.0]undeca-7,9,11-trien-10-yl)amino]-2,5-difluoro-N-(1-methyl-4-piperidyl)benzamide], the concentration for half-maximal inhibition (IC50) was less than 300 nM.

As for `CN1C(=O)C2(CC2)CN(C2CCCCC2)c2nc(Nc3ccc(C(=O)NC4C[C@H]5CCC[C@@H](C4)N5C)cc3F)ncc21` (stereo partly drawn) [Example 435, 4-(9′-cyclohexyl-5′-methyl-6′-oxo-5′,6′,8′,9′-tetrahydrospiro[cyclopropane-1,7′-pyrimido[5,4-b][1,4]diazepine]-2′-ylamino)-3-fluoro-N-[(1S,5R)-9-methyl-9-azabicyclo[3.3.1]non-7-yl]benzamide], the 50% inhibitory concentration (IC50) was less than 300 nM.

With `COc1cc(C(=O)NCC2(CN3CCCC3)CC2)c(F)cc1Nc1ncc2c(n1)N(C1CCCCC1)CC1(CC1)C(=O)N2C` [Example 445, 4-(9′-cyclohexyl-5′-methyl-6′-oxo-5′,6′,8′,9′-tetrahydrospiro[cyclopropane-1,7′-pyrimido[5,4-b][1,4]diazepine]-2′-ylamino)-2-fluoro-5-methoxy-N-[[1-(pyrrolidin-1-ylmethyl)cyclopropyl]methyl]benzamide], the IC50 is less than 300 nM.

On to `CCN1CCC(NC(=O)c2cc(OC)c(Nc3ncc4c(n3)N(C(C)C)CC(CC)(CC)C(=O)N4C)cc2F)CC1` [Example 308, 4-[(4,4-diethyl-6-methyl-5-oxo-2-propan-2-yl-2,6,9,11-tetrazabicyclo[5.4.0]undeca-7,9,11-trien-10-yl)amino]-N-(1-ethyl-4-piperidyl)-2-fluoro-5-methoxy-benzamide], for which the IC50 was less than 300 nM.

Turning to `CN1C(=O)CCN(C2CCCCC2)c2nc(Nc3cc(F)c(C(=O)NCCN4CCCC4)cc3F)ncc21` [Example 416, 4-[(2-cyclohexyl-6-methyl-5-oxo-2,6,9,11-tetrazabicyclo[5.4.0]undeca-7,9,11-trien-10-yl)amino]-2,5-difluoro-N-(2-pyrrolidin-1-ylethyl)benzamide], the IC50 is less than 1000 nM.

Regarding `CCC1(CC)CN(C2CCCC2)c2nc(Nc3ccc(C(=O)NCC(C)(C)CN4CCCC4)cc3OC)ncc2N(C)C1=O` [Example 376, 4-[(2-cyclopentyl-4,4-diethyl-6-methyl-5-oxo-2,6,9,11-tetrazabicyclo[5.4.0]undeca-7,9,11-trien-10-yl)amino]-N-(2,2-dimethyl-3-pyrrolidin-1-yl-propyl)-3-methoxy-benzamide], the IC50 was less than 300 nM.

In the case of `CCN1CCC(NC(=O)c2ccc(Nc3ncc4c(n3)N(C(C)C)CC(CC)(CC)C(=O)N4C)c(OC)c2)CC1` [Example 305, 4-[(4,4-diethyl-6-methyl-5-oxo-2-propan-2-yl-2,6,9,11-tetrazabicyclo[5.4.0]undeca-7,9,11-trien-10-yl)amino]-N-(1-ethyl-4-piperidyl)-3-methoxy-benzamide], the IC50 is less than 300 nM.

Take `COc1cc(C(=O)NC2C[C@H]3CCC[C@@H](C2)N3C)c(F)cc1Nc1ncc2c(n1)N(C1CCCCC1)CCC(=O)N2C` (stereo partly drawn) [Example 427, 4-[(2-cyclohexyl-6-methyl-5-oxo-2,6,9,11-tetrazabicyclo[5.4.0]undeca-7,9,11-trien-10-yl)amino]-2-fluoro-5-methoxy-N-[(1R,5S)-9-methyl-9-azabicyclo[3.3.1]non-7-yl]benzamide]: the IC50 is less than 300 nM.

Turning to `COc1cc(C(=O)NC2CCCCN(C)C2)ccc1Nc1ncc2c(n1)N(C1CCCC1)CCC(=O)N2C` (stereo not drawn) [Example 453, 4-[(2-cyclopentyl-6-methyl-5-oxo-2,6,9,11-tetrazabicyclo[5.4.0]undeca-7,9,11-trien-10-yl)amino]-3-methoxy-N-(1-methylazepan-3-yl)benzamide], the IC50 was less than 300 nM.

Turning to `COc1cc(C(=O)NC2C[C@H]3CCC[C@@H](C2)N3C)c(F)cc1Nc1ncc2c(n1)N(C1CCCCC1)CC1(CC1)C(=O)N2C` (stereo partly drawn) [Example 442, 4-(9′-cyclohexyl-5′-methyl-6′-oxo-5′,6′,8′,9′-tetrahydrospiro[cyclopropane-1,7′-pyrimido[5,4-b][1,4]diazepine]-2′-ylamino)-2-fluoro-5-methoxy-N-[(1S,5R)-9-methyl-9-azabicyclo[3.3.1]non-3-yl]benzamide], the half-inhibitory concentration (IC50) was less than 300 nM.

For `CN1C(=O)C(C)(C)CN(C2CCCC2)c2nc(Nc3cc(F)c(C(=O)NC4CCC(N(C)C)CC4)cc3Cl)ncc21` (stereo not drawn) [Example 366, 5-chloro-4-[(2-cyclopentyl-4,4,6-trimethyl-5-oxo-2,6,9,11-tetrazabicyclo[5.4.0]undeca-7,9,11-trien-10-yl)amino]-N-(4-dimethylaminocyclohexyl)-2-fluoro-benzamide], the 50% inhibitory concentration (IC50) is less than 300 nM.

`COc1cc(C(=O)NCCN2CCCC2)ccc1Nc1ncc2c(n1)N(C(C)C)CC1(CC1)C(=O)N2C` [Example 312, 4-(9′-isopropyl-5′-methyl-6′-oxo-5′,6′,8′,9′-tetrahydrospiro[cyclopropane-1,7′-pyrimido[5,4-b][1,4]diazepine]-2′-ylamino)-3-methoxy-N-(2-(pyrrolidin-1-yl)ethyl)benzamide]: the IC50 is less than 300 nM.

As for `C#CCN1CCC(=O)N(C)c2cnc(Nc3ccc(C(=O)NC4CCN(C)CC4)cc3OC)nc21` [Example 271, 3-methoxy-4-[(6-methyl-5-oxo-2-prop-2-ynyl-2,6,9,11-tetrazabicyclo[5.4.0]undeca-7,9,11-trien-10-yl)amino]-N-(1-methyl-4-piperidyl)benzamide], the IC50 was less than 30000 nM.

For `CN1CCC(NC(=O)c2ccc(Nc3ncc4c(n3)N(C3CCCC3)CCC(=O)N4C)c3c2OCO3)CC1` [Example 341, 7-[(2-cyclopentyl-6-methyl-5-oxo-2,6,9,11-tetrazabicyclo[5.4.0]undeca-7,9,11-trien-10-yl)amino]-N-(1-methyl-4-piperidyl)benzo[1,3]dioxole-4-carboxamide], the IC50 was less than 300 nM.

As for `COc1cc(C(=O)NCCN2CCCC2)ccc1Nc1ncc2c(n1)N(C1CCCC1)CC1(CC1)C(=O)N2C` [Example 384, 4-(9′-cyclopentyl-5′-methyl-6′-oxo-5′,6′,8′,9′-tetrahydrospiro[cyclopropane-1,7′-pyrimido[5,4-b][1,4]diazepine]-2′-ylamino)-3-methoxy-N-(2-pyrrolidin-1-ylethyl)benzamide], the IC50 is less than 300 nM.

`COc1cc(C(=O)NC2CCC(N(C)C)CC2)c(Cl)cc1Nc1ncc2c(n1)N(C1CCCC1)CCC(=O)N2C` (stereo not drawn) [Example 338, 2-chloro-4-[(2-cyclopentyl-6-methyl-5-oxo-2,6,9,11-tetrazabicyclo[5.4.0]undeca-7,9,11-trien-10-yl)amino]-N-(4-dimethylaminocyclohexyl)-5-methoxy-benzamide]: the 50% inhibitory concentration (IC50) was less than 300 nM.

Regarding `COc1cc(C(=O)NC2CCN(C)CC2)ccc1Nc1ncc2c(n1)N(C1CCCC1)CC1(CCCC1)C(=O)N2C` [Example 409, 4-(9′-cyclopentyl-5′-methyl-6′-oxo-5′,6′,8′,9′-tetrahydrospiro[cyclopentane-1,7′-pyrimido[5,4-b][1,4]diazepine]-2′-ylamino)-3-methoxy-N-(1-methylpiperidin-4-yl)benzamide], the 50% inhibitory concentration (IC50) is less than 300 nM.

Take `COc1cc(C(=O)NCC(C)(C)CN2CCCC2)ccc1Nc1ncc2c(n1)N(C1CCCCC1)CC1(CC1)C(=O)N2C` [Example 440, 4-(9′-cyclohexyl-5′-methyl-6′-oxo-5′,6′,8′,9′-tetrahydrospiro[cyclopropane-1,7′-pyrimido[5,4-b][1,4]diazepine]-2′-ylamino)-N-(2,2-dimethyl-3-pyrrolidin-1-yl-propyl)-3-methoxy-benzamide]: the 50% inhibitory concentration (IC50) was less than 300 nM.
